Measurements from patent US20100297688A1, “METHOD FOR DIAGNOSING OR PREDICTING SHORT STATURE IN HUMANS” (priority 2009, published 2010).
No end group written: not given here.

What was measured:
[1] = adult dogs, after treatment with GH for 3 months, histomorphometry; cited from earlier work
GH secretion = test: GHRH test (GH stimulation test) in children with short stature; format: in vivo, human; settings: GHRH 1 μg/kg IV at 0 min; GH peaks induced consistently in the first 30 min
Description: Patients. A GHRH test was conducted after overnight fasting, modified with samples that were obtained at 3, 5, and 10 minutes in addition to routine protocol collection of samples at 30 minutes, 60 minutes, 90 minutes and 120 minutes following GHRH injection (GHRH1-29: GEREF, SERONO, Italy; 1 μg/kg IV at 0 min). A total of 19 children (8.6±3.2, range from 2.5 yrs to 14 yrs, 5 girls) who suffered SS (short stature) (Ht−2.5±0.6 SDS) were administered GHRH 1 μg/kg IV at 0 min and blood samples were obtained at 0, 3, 5, 10, 30, 60, 90 and 120 min. GH was determined in all samples.
Blood sample processing. GH and IGF-1 were analyzed at Esoterix (Texas, U.S.). IGF1 was measured by radioimmunoassay after acid-ethanol extraction and with IGF2 blocking. A 100 uL of sample was initially used for the procedure. Growth hormone was tested by ICMA, requires min amount of 0.2 ml of serum, preparation include 1 mL serum, separate within one hour that was shipped frozen in plastic vial (http://www.esoterix.com/prodserv/test_menu!)
AUC measurements for GH were calculated according trapezoid rule (Tai MM 1994 A mathematical model for the determination of total area under glucose tolerance and other metabolic curves. Diabetes Care 17:p 152-4).

**Q.** With Growth hormone [GH] as the substance, how does the “increase in cortical bone mass” value [1] read?
**A.** The value was 2%.

**Q.** With “Growth hormone releasing hormone (YADAIFTNSYRKVLGQLSARKLLQDIMSR; ends and bridges not checked; UniProt P01286 32-60, looked up, fragment) [GHRH, GHRH1-29: GEREF, SERONO, Italy; stimulator of GH secretion]” as the substance, how does the “time of GH peak after GHRH” value (GH secretion) read?
**A.** The value was ≤ 30 min.
